The source of these data is ChEMBL document CHEMBL3286383, “4-Benzofuranyloxynicotinamide derivatives are novel potent and orally available TGR5 agonists” (Eur J Med Chem, 2014).

In data set [1] the target is T1, G-protein coupled bile acid receptor 1 (Homo sapiens, UniProt Q8TDU6).
T1 sequence (Q8TDU6 whole entry): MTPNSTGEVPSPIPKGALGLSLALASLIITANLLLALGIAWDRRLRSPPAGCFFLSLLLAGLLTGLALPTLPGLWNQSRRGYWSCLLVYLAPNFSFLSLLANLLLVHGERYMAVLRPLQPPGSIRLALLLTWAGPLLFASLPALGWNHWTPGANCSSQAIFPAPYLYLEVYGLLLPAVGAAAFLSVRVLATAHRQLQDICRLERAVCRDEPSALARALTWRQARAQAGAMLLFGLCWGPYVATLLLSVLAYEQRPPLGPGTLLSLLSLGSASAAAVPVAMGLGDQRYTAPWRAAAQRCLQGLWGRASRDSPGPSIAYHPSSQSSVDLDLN
Kind of data set: Agonist activity at human TGR5 expressed in HEK293 cells co-expressing CRE after 5.5 hrs by luciferase reporter gene assay. The data set is classed as functional, cell-based. Background: A reporter such as luciferase makes a cellular process visible.

For data set [2], the target named is T2, G-protein coupled bile acid receptor 1 (Mus musculus, UniProt Q80SS6).
T2 sequence (Q80SS6 whole entry): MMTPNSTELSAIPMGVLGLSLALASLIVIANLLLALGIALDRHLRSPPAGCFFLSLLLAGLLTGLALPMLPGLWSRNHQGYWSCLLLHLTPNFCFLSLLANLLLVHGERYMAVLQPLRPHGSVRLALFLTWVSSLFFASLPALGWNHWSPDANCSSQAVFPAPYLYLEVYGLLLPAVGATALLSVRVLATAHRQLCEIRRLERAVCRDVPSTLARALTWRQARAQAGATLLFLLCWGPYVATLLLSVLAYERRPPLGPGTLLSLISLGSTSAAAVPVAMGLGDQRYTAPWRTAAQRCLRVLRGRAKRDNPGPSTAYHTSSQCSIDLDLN
Kind of data set: Agonist activity at mouse TGR5 expressed in HEK293 cells co-expressing CRE after 5.5 hrs by luciferase reporter gene assay. It counts as functional, cell-based.

Data set [3] has as its target T1, G-protein coupled bile acid receptor 1. The experiment in a line: Agonist activity at human TGR5.
For data set [4], the target named is T3, G-protein coupled bile acid receptor 1 (Homo sapiens) (UniProt Q8TDU6).
T3 sequence (whole entry): T1 sequence (Q8TDU6 whole entry)
Kind of data set: Agonist activity at human TGR5 expressed in HEK293 cells co-expressing CRE at 1 uM after 5.5 hrs by luciferase reporter gene assay. It counts as functional, cell-based.

A short description of data set [5]: Apparent permeability of the compound from apical to basolateral side of human Caco2 cells up to 95 mins by LC-MS/MS analysis. The note with it: Caco-2. A general note: Caco-2 monolayers are a common model of the intestinal barrier.
Data set [6] can be described thus: Apparent permeability of the compound from basolateral to apical side of human Caco2 cells up to 95 mins by LC-MS/MS analysis. The note with it: Caco-2.
A short description of data set [7]: Efflux ratio of permeability from apical to basolateral side over basolateral to apical side of human Caco2 cells up to 95 mins by LC-MS/MS analysis. The note with it: Caco-2.
The subject of data set [8] is Mus musculus. The experiment in a line: Antidiabetic activity in oral glucose loaded ICR mouse assessed as reduction of AUC (0 to 120 mins) of blood glucose level at 50 mg/kg, po by oral glucose tolerance test. It counts as functional. More on the design: scale not given: the % may be the effect or the level left.
Data set [9] concerns Mus musculus. Kind of data set: Gallbladder toxicity in ICR mouse assessed as increase of gallbladder volume at 50 mg/kg, po after 3 hrs. The data set is classed as organism-based. Set-up: dose 50 mg/kg, route oral. The conditions noted are these: in vivo.
Data set [10] can be described thus: Ratio of plasma concentration in ICR mouse plasma at 50 mg/kg, po after 3 hrs to EC50 for mouse TGR5 expressed in HEK293 cells. It counts as ADME, organism-based. More on the design: dose 50 mg/kg, route oral. The note with it: in vivo.
Data set [11] concerns Nucleic Acid. Kind of data set: Ratio of drug level in ICR mouse bile at 50 mg/kg, po after 3 hrs to EC50 for mouse TGR5 expressed in HEK293 cells. The data set is classed as organism-based. Set-up: dose 50 mg/kg.
The subject of data set [12] is Nucleic Acid. Kind of data set: Ratio of drug level in ICR mouse gallbladder at 50 mg/kg, po after 3 hrs to EC50 for mouse TGR5 expressed in HEK293 cells. It counts as organism-based. Set-up: dose 50 mg/kg.
A short description of data set [13]: Drug level in ICR mouse blood at 50 mg/kg, po after 3 hrs by LC-MS/MS analysis. The data set is classed as ADME, organism-based. Set-up: dose 50 mg/kg, route oral. The note with it: read-out: Drug uptake.
The nature of data set [14]: Drug level in ICR mouse bile at 50 mg/kg, po after 3 hrs by LC-MS/MS analysis. It counts as ADME, organism-based. More on the design: dose 50 mg/kg, route oral. The conditions noted are these: read-out: Drug uptake.
Data set [15] is described as follows: Drug level in ICR mouse gallbladder at 50 mg/kg, po after 3 hrs by LC-MS/MS analysis. The conditions noted are these: read-out: Drug uptake. The data set is classed as ADME, organism-based, Gall bladder. Set-up: dose 50 mg/kg, route oral.

As for `CCOC(=O)Cc1coc2cc(Cl)c(Oc3ccncc3C(=O)N3CCN(C4CC4)c4ccccc43)cc12`, the EC50 (usually the midpoint of the concentration-response curve) was 5.2 nM in [1] and 38 nM in data set [2].
`CCOC(=O)c1oc2cc(Cl)c(Oc3ccncc3C(=O)N3CCN(C4CC4)c4ccccc43)cc2c1C`: a half-maximal effect in data set [1] (EC50) was put at 38 nM.
Take `O=C(c1cnccc1Oc1ccc(O)cc1)N1CCN(C2CC2)c2ccccc21`: in data set [3], the EC50 result is on record as “Not Active”.
`Cc1c(Br)oc2cc(Cl)c(Oc3ccncc3C(=O)N3CCN(C4CC4)c4ccccc43)cc12`: the 50% effective concentration (EC50) in [1] was determined as 7.7 nM; in data set [2] it was 66 nM.
For the compound `CC(=O)c1cccc(Oc2ccncc2C(=O)N2CCN(C3CC3)c3ccccc32)c1`, the half-maximal effective concentration (EC50) in data set [3] (read-out: EC50) came to 5.5 nM.
The compound `Cc1c(C(=O)O)oc2cc(Cl)c(Oc3ccncc3C(=O)N3CCN(C4CC4)c4ccccc43)cc12` registered an EC50 in [1] of 63 nM.
In the case of `Cc1c(CCC(=O)O)oc2ccc(Cl)c(Oc3ccncc3C(=O)N3CCN(C4CC4)c4ccccc43)c12`, the EC50 in data set [1] was 35 nM; in [2] it was 101 nM.
In data set [1], `CCOC(=O)CNC(=O)c1coc2cc(Cl)c(Oc3ccncc3C(=O)N3CCN(C4CC4)c4ccccc43)cc12` gave an EC50 of 1400 nM.
Same read-out and setting: then `CCOC(=O)CNC(=O)CCc1coc2cc(Cl)c(Oc3ccncc3C(=O)N3CCN(C4CC4)c4ccccc43)cc12`, with 119 nM; and `O=C(c1cnccc1Oc1cccc2ncccc12)N1CCN(C2CC2)c2ccccc21`, with 40 nM.
Still for that read-out and setting: the same measure for `O=C(c1cnccc1Oc1ccc2cc[nH]c2c1)N1CCN(C2CC2)c2ccccc21`: 162 nM; for `O=C(c1cnccc1Oc1ccc2cccnc2c1)N1CCN(C2CC2)c2ccccc21`: 59 nM; for `Cc1noc2cc(Oc3ccncc3C(=O)N3CCN(C4CC4)c4ccccc43)ccc12`: 240 nM.
Same read-out and setting: then `O=C(c1cnccc1Oc1ccc2ccccc2c1)N1CCN(C2CC2)c2ccccc21`, with 41 nM.
`O=C(c1cnccc1Oc1cc2ccoc2cc1Cl)N1CCN(C2CC2)c2ccccc21`: the EC50 in data set [1] came to 1.4 nM; in [2], 10 nM.
`CCOC(=O)CNC(=O)c1oc2cc(Cl)c(Oc3ccncc3C(=O)N3CCN(C4CC4)c4ccccc43)cc2c1C` registered an EC50 in data set [1] of 78 nM.
Same read-out and setting: the same measure for `O=C(O)CCc1coc2cc(Cl)c(Oc3ccncc3C(=O)N3CCN(C4CC4)c4ccccc43)cc12`: 675 nM.
In the case of `O=C(c1cnccc1Oc1ccc2occc2c1)N1CCN(C2CC2)c2ccccc21`, the EC50 in [1] came to 10.7 nM; in data set [2], 28 nM.
Compound `O=C(O)c1coc2cc(Cl)c(Oc3ccncc3C(=O)N3CCN(C4CC4)c4ccccc43)cc12` yielded an Activity in [4] of 38%.
`O=C(O)Cc1coc2cc(Cl)c(Oc3ccncc3C(=O)N3CCN(C4CC4)c4ccccc43)cc12` gave an EC50 in data set [1] of 1360 nM.
For `COC(=O)CCc1coc2cc(Cl)c(Oc3ccncc3C(=O)N3CCN(C4CC4)c4ccccc43)cc12`, the EC50 was 24 nM in data set [1] and 82 nM in [2].
As for `CCOC(=O)CNC(=O)CCc1oc2ccc(Cl)c(Oc3ccncc3C(=O)N3CCN(C4CC4)c4ccccc43)c2c1C`, the half-maximal effective concentration (EC50) in [1] is 30 nM; in data set [2], 85 nM.
For the compound `CCOC(=O)CNC(=O)/C=C/c1oc2ccc(Cl)c(Oc3ccncc3C(=O)N3CCN(C4CC4)c4ccccc43)c2c1C`, the EC50 in data set [1] worked out at 8.5 nM; in data set [2], 6.1 nM. In addition, in [5], the Papp A→B (commonly the apparent permeability from the apical to the basolateral side of a cell layer) at 95 min came to 1.04 ×10⁻⁶ cm/s. The apparent permeability from basolateral to apical (Papp B→A) (as a rule, the apparent permeability from the basolateral to the apical side of a cell layer) at 95 min in [6] amounted to 0.5 ×10⁻⁶ cm/s. For the same compound, the efflux ratio (usually the permeability from basolateral to apical divided by that in the opposite direction, in the common usage) at 95 min in [7] is 0.48.
On to `O=C(c1cnccc1Oc1cccc2ccccc12)N1CCN(C2CC2)c2ccccc21`, for which the EC50 in data set [1] was found to be 17 nM; in data set [2], 66 nM.
For `CCOC(=O)c1coc2cc(Cl)c(Oc3ccncc3C(=O)N3CCN(C4CC4)c4ccccc43)cc12` the same measures were 1.7 nM and 39 nM.
Regarding `CCOC(=O)/C=C/c1oc2ccc(Cl)c(Oc3ccncc3C(=O)N3CCN(C4CC4)c4ccccc43)c2c1C`, the EC50 in data set [1] is 8.9 nM; in data set [2], 16 nM.
For `O=C(c1cnccc1Oc1ccc2ncsc2c1)N1CCN(C2CC2)c2ccccc21` the same measures were 15 nM and 60 nM.
`O=C(c1cnccc1Oc1cccc2cccnc12)N1CCN(C2CC2)c2ccccc21` had an EC50 in data set [1] of 178 nM.
On the same count and under the same terms, the same measure for `O=C(c1cnccc1Oc1ccc2[nH]ccc2c1)N1CCN(C2CC2)c2ccccc21`: 1220 nM.
For the compound `Cc1coc2ccc(Oc3ccncc3C(=O)N3CCN(C4CC4)c4ccccc43)cc12`, the EC50 in data set [1] was 0.45 nM; in data set [2], 2.4 nM.
Take `Cc1coc2cc(Cl)c(Oc3ccncc3C(=O)N3CCN(C4CC4)c4ccccc43)cc12`: the results for the EC50 in data set [1] and in [2] were 0.28 nM and 0.92 nM, respectively. For the same compound, the values for the Activity in the data set on Mus musculus [8] and with Mus musculus [9] were 33% and 97%, respectively. Besides, the Ratio in data set [10] came out at 153; with Nucleic Acid [11], 1030; in the data set on Nucleic Acid [12] it was 891. Moreover, the apical-to-basolateral permeability (Papp A→B) at 95 min in data set [5] turned out to be 2.1 ×10⁻⁶ cm/s. Moreover, in data set [6], the Papp B→A at 95 min stood at 1.5 ×10⁻⁶ cm/s. For the same compound, the efflux ratio at 95 min in data set [7] worked out at 0.71. For the same compound, the concentration at 3 h turned out to be 65 ng/mL in data set [13], 438 ng/mL in [14] and 410 ng/mL in data set [15].
As to `CCOC(=O)CCc1oc2ccc(Cl)c(Oc3ccncc3C(=O)N3CCN(C4CC4)c4ccccc43)c2c1C`, the concentration for a half-maximal effect (EC50) in data set [1] came out at 18 nM; in data set [2], 72 nM.
For `Cc1noc2ccc(Oc3ccncc3C(=O)N3CCN(C4CC4)c4ccccc43)cc12` the same measures were 1.5 nM and 5.5 nM.
For `O=C(c1cnccc1Oc1ccc2ccoc2c1)N1CCN(C2CC2)c2ccccc21` the same measures were 25 nM and 43 nM.
Compound `O=C(c1cnccc1Oc1ccc2ncccc2c1)N1CCN(C2CC2)c2ccccc21` returned an EC50 in data set [1] of 64 nM.
Same read-out and setting: then `O=C(c1cnccc1Oc1cccc2[nH]ccc12)N1CCN(C2CC2)c2ccccc21`, with 148 nM.
As to `O=C(c1cnccc1Oc1ccc2sccc2c1)N1CCN(C2CC2)c2ccccc21`, the figures for the EC50 in data set [1] and in [2] were 16 nM and 52 nM, respectively.
As to `CC(=O)c1cc(C(=O)N2CCN(C3CC3)c3ccccc32)ccc1O`, the EC50 in data set [3] (read-out: EC50) is 2.3 nM.
Consider `Cc1c(/C=C/C(=O)O)oc2ccc(Cl)c(Oc3ccncc3C(=O)N3CCN(C4CC4)c4ccccc43)c12`, for which the EC50 in data set [1] was 25 nM; in [2] it was 18 nM.
On to `CCOC(=O)CNC(=O)Cc1coc2cc(Cl)c(Oc3ccncc3C(=O)N3CCN(C4CC4)c4ccccc43)cc12`, for which a half-maximal effect in [1] (EC50) was put at 520 nM.
